From patent US5821239A (priority 1996, dated 1998)
Like-named read-outs stand apart in the source and are kept apart here.

Tests used:
[1] = target: Brain AChE (acetylcholinesterase, rat striatum) (Rattus norvegicus, UniProt P37136); assay: biochemical; set-up: species or system rat (male Wistar)
[2] = test system: Scopolamine Induced Memory Deficit (mice); conditions: mouse, in vivo, sc

Chain of Brain AChE (acetylcholinesterase, rat striatum) (P37136 32-614): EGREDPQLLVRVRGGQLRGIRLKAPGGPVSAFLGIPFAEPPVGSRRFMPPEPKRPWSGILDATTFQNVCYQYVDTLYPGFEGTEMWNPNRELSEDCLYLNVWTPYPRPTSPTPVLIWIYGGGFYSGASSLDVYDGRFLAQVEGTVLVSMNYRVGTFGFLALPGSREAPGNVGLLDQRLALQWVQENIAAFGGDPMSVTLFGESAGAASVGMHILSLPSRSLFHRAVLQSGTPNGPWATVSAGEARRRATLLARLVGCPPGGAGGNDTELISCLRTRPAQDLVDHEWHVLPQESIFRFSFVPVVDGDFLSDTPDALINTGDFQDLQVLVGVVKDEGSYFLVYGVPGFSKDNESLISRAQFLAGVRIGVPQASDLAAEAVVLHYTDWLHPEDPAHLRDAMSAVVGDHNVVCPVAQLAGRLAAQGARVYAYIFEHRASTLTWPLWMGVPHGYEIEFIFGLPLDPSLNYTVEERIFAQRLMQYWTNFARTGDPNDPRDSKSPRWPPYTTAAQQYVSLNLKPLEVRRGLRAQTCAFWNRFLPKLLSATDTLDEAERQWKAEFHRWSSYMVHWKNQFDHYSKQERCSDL

With `CCNC(=O)Oc1cnccc1N=CN(C)C` [4-[[(Dimethylamino)methylene]amino]-3-pyridinol ethylcarbamate] the IC50 [1] was 9.37 µM, the “% of Animals with Scopolamine Induced Memory Deficit Reversal” value ([2]; 0.1 mg/kg) was 20.0% and the “% of Animals with Scopolamine Induced Memory Deficit Reversal” value ([2]; 0.3 mg/kg) was 21.4%.
Work on `CNC(=O)Oc1cnccc1N=CN(C)C` [4-[[(Dimethylamino)methylene]amino]-3-pyridinol methylcarbamate] yielded an IC50 [1] of 12.6 µM.
